How the values were obtained:
SMARCA2 = SMARCA2 (Homo sapiens, UniProt P51531); assay: HiBit assay in engineered HT1080 CRISPR knock-in cell, 6 hrs (B series), SMARCA2; type: cell-based; conditions: 6 hrs incubation; for DC50: HT1080 CRISPR knock-in cells, read-out: SMARC A2 HT1080 HiBit DC50; for Dmax: HT-1080, HT1080 CRISPR knock-in cells, read-out: SMARC A2 HT1080 HiBit Dmax (%)
Outline: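 HT1080 CRISPR knock-in cells carrying the HiBiT tag were seeded onto compounds (final DMSO 0.1%) and incubated 6 hrs at 37° C, 5% CO2. Remaining tagged protein was detected by lytic HiBiT luminescence after adding LgBiT protein and substrate, with LgBiT-free wells serving as negative control.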

SMARCA4 = SMARCA4 (Homo sapiens, UniProt P51532); assay: HiBit assay in engineered HT1080 CRISPR knock-in cell, 6 hrs (B series), SMARCA4; type: cell-based; conditions: 6 hrs incubation; for DC50: HT1080 CRISPR knock-in cells, read-out: SMARC A4 HT1080 HiBit DC50; for Dmax: HT-1080, HT1080 CRISPR knock-in cells, read-out: SMARC A4 HT1080 HiBit Dmax(%)
Outline: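 Using a 6 hr treatment window at 37° C and 5% CO2, tagged HT1080 knock-in cells were exposed to test compounds with DMSO vehicle held at 0.1%. Signal came from lytic LgBiT/substrate reagent added after incubation, with control wells lacking LgBiT, and was read as luminescence.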

Chain of SMARCA2 (P51531 whole entry): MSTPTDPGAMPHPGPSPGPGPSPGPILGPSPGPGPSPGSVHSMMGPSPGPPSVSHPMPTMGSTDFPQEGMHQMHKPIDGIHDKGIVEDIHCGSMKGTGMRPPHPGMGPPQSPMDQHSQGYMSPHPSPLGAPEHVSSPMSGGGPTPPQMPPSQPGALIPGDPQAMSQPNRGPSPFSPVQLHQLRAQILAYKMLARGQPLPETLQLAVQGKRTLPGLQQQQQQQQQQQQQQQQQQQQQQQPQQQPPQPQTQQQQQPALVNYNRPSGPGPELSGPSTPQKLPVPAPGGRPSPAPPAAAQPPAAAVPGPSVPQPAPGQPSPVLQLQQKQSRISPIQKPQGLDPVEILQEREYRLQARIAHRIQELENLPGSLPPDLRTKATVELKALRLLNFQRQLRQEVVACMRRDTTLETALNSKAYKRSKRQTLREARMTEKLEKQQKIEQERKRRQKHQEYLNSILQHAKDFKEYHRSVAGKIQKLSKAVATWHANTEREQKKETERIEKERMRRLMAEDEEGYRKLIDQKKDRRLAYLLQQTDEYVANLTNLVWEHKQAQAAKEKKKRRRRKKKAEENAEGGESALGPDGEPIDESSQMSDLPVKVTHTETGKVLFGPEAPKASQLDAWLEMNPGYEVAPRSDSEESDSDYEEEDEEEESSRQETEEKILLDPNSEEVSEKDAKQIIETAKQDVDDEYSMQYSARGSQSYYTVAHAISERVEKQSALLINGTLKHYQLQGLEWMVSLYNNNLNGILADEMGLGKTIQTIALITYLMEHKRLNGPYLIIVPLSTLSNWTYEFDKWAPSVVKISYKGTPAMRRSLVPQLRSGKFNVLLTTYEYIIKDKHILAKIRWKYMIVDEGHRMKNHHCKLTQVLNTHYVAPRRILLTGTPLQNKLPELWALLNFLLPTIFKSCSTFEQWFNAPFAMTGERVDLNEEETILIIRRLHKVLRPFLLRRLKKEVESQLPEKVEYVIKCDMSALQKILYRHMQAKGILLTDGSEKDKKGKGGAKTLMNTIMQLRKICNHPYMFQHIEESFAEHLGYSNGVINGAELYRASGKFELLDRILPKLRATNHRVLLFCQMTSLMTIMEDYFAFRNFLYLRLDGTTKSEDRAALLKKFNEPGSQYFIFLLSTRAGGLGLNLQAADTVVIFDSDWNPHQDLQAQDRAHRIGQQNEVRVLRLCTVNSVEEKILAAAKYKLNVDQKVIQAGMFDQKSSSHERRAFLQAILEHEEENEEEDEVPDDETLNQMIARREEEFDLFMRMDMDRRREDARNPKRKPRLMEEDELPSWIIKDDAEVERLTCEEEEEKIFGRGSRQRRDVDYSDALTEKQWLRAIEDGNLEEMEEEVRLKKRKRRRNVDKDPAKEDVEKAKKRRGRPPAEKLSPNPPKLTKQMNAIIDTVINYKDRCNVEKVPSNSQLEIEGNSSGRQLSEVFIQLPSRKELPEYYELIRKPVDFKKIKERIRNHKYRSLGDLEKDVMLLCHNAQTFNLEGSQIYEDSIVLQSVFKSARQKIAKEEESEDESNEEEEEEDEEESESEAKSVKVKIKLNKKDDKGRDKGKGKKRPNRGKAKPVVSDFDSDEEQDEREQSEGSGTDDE
Chain of SMARCA4 (P51532 whole entry): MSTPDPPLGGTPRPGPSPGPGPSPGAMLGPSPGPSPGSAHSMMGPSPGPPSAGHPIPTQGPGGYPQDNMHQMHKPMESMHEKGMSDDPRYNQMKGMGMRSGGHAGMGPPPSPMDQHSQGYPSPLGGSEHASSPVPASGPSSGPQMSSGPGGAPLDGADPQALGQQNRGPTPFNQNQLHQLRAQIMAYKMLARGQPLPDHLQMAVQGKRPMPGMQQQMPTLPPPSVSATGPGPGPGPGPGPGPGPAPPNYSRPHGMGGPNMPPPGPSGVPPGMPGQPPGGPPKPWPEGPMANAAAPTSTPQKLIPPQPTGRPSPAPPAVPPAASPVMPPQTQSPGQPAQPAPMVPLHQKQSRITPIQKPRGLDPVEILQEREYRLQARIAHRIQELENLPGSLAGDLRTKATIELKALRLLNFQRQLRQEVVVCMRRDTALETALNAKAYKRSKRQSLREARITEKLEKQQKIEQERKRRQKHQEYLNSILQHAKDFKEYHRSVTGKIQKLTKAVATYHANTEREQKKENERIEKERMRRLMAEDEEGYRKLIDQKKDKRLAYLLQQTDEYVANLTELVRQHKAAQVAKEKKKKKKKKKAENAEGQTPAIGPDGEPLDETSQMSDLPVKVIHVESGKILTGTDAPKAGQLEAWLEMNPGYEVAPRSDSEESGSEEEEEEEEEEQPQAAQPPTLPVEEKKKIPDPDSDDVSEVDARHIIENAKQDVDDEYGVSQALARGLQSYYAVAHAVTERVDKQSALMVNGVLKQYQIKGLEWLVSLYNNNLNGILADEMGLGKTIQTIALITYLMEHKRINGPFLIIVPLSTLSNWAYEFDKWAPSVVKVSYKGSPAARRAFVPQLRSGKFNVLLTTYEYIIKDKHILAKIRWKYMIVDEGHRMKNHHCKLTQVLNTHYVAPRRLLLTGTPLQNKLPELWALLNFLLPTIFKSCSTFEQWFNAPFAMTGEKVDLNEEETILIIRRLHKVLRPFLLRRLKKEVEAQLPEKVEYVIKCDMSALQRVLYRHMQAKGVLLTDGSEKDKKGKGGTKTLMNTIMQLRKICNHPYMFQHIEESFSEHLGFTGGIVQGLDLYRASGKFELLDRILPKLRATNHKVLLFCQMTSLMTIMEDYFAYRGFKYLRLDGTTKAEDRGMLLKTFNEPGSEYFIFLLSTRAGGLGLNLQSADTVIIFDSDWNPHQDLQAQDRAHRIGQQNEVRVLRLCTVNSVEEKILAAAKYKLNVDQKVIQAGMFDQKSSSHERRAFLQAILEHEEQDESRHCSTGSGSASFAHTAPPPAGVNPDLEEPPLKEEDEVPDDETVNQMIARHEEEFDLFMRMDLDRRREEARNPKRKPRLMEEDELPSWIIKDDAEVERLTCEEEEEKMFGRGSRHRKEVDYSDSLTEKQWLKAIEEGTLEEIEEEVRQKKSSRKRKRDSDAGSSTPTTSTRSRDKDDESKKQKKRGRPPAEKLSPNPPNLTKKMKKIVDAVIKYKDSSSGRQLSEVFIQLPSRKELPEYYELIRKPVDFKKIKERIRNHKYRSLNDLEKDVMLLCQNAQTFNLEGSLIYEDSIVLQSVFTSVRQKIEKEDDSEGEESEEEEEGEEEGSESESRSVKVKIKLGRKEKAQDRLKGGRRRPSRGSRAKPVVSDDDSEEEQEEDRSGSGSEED

Cc1ncsc1-c1ccc(CNC(=O)[C@@H]2C[C@@H](O)CN2C(=O)[C@@H](NC(=O)C2(F)CC2)C(C)(C)C)c(OCC2CCC(N3CCC(c4ccc5c(c4)-n4c(nc(=O)c6c(Cl)cccc64)C5(C)C)CC3)CC2)c1 (stereo partly drawn) [Compound B80, (2S,4R)-N-(2-((4-(4-(4-chloro-7,7-dimethyl-5-oxo-5,7-dihydroindolo[1,2-a]quinazolin-10-yl)piperidin-1-yl)cyclohexyl)methoxy)-4-(4-methylthiazol-5-yl)benzyl)-1-((S)-2-(1-fluorocyclopropane-1-carboxamido)-3,3-dimethylbutanoyl)-4-hydroxypyrrolidine-2-carboxamide] showed a DC50 (SMARCA2) of less than 100 nM, a Dmax (SMARCA2) greater than 90% and a DC50 (SMARCA4) of less than 100 nM. For the same compound, the Dmax (SMARCA4) was greater than 90%.
In the case of Cc1ncsc1-c1ccc([C@H](C)NC(=O)[C@@H]2C[C@@H](O)CN2C(=O)[C@@H](c2cc(OCC3CCC(N4CCC(c5cccc6c5C(C)(C)c5nc(=O)c7c(Cl)cccc7n5-6)CC4)CC3)no2)C(C)C)cc1 (stereo partly drawn) [Compound B100, (2S,4R)-1-((R)-2-(3-((4-(4-(4-chloro-7,7-dimethyl-5-oxo-5,7-dihydroindolo[1,2-a]quinazolin-8-yl)piperidin-1-yl)cyclohexyl)methoxy)isoxazol-5-yl)-3-methylbutanoyl)-4-hydroxy-N-((S)-1-(4-(4-methylthiazol-5-yl)phenyl)ethyl)pyrrolidine-2-carboxamide], the DC50 (SMARCA2) is reported as less than 100 nM, the Dmax (SMARCA2) is reported as 70 to 90% and the DC50 (SMARCA4) is reported as less than 100 nM. The Dmax (SMARCA4) was less than 50%.
C[C@H](NC(=O)[C@@H]1C[C@@H](O)CN1C(=O)[C@@H](n1cc([C@H]2CC[C@H](CN3CCN(c4ccc5c(c4)-n4c(nc(=O)c6c(Cl)cccc64)C5(C)C)CC3)CC2)nn1)C(C)(C)C)c1ccc(-c2ccn[nH]2)cc1 [Compound B127, (2S,4R)-N-((S)-1-(4-(1H-pyrazol-5-yl)phenyl)ethyl)-1-((S)-2-(4-((1r,4S)-4-((4-(4-chloro-7,7-dimethyl-5-oxo-5,7-dihydroindolo[1,2-a]quinazolin-10-yl)piperazin-1-yl)methyl)cyclohexyl)-1H-1,2,3-triazol-1-yl)-3,3-dimethylbutanoyl)-4-hydroxypyrrolidine-2-carboxamide] was tested, and the DC50 (SMARCA2) was less than 100 nM, the Dmax (SMARCA2) was greater than 90% and the DC50 (SMARCA4) was less than 100 nM. The Dmax (SMARCA4) was 70 to 90%.
In the case of Cc1ncsc1-c1ccc([C@H](CN2CCOCC2)NC(=O)[C@@H]2C[C@@H](O)CN2C(=O)[C@@H](c2cc(O[C@H]3CC[C@H](CN4CCN(c5ccc6c(c5)-n5c(nc(=O)c7c(Cl)cccc75)C65CCCCC5)CC4)CC3)no2)C(C)C)cc1 [Compound B138, (2S,4R)-1-((R)-2-(3-(((1r,4R)-4-((4-(4′-chloro-5′-oxo-5′H-spiro[cyclohexane-1,7′-indolo[1,2-a]quinazolin]-10′-yl)piperazin-1-yl)methyl)cyclohexyl)oxy)isoxazol-5-yl)-3-methylbutanoyl)-4-hydroxy-N-((R)-1-(4-(4-methylthiazol-5-yl)phenyl)-2-morpholinoethyl)pyrrolidine-2-carboxamide], the DC50 (SMARCA2) is reported as less than 100 nM, the Dmax (SMARCA2) is reported as greater than 90% and the DC50 (SMARCA4) is reported as less than 100 nM. The Dmax (SMARCA4) was greater than 90%.
Compound C[C@H](NC(=O)[C@@H]1C[C@@H](O)CN1C(=O)[C@@H](n1cc(C2CCC(CN3CCN(c4ccc5c(c4)-n4c(nc(=O)c6c(Cl)cccc64)C54CCCCC4)CC3)CC2)nn1)C(C)(C)C)c1ccc(-c2scnc2C#CCN2CCOCC2)cc1 (stereo partly drawn) [Compound B140, (2S,4R)-1-((S)-2-(4-((1s,4R)-4-((4-(4′-chloro-5′-oxo-5′H-spiro[cyclohexane-1,7′-indolo[1,2-a]quinazolin]-10′-yl)piperazin-1-yl)methyl)cyclohexyl)-1H-1,2,3-triazol-1-yl)-3,3-dimethylbutanoyl)-4-hydroxy-N-((S)-1-(4-(4-(3-morpholinoprop-1-yn-1-yl)thiazol-5-yl)phenyl)ethyl)pyrrolidine-2-carboxamide] has a DC50 (SMARCA2) of less than 100 nM, a Dmax (SMARCA2) greater than 90% and a DC50 (SMARCA4) of less than 100 nM. It also gave a Dmax (SMARCA4) of 50 to 69%.
With Cc1ncsc1-c1ccc2c(c1)CCC[C@H]2NC(=O)[C@@H]1C[C@@H](O)CN1C(=O)[C@@H](n1cc([C@H]2CC[C@H](CN3CCC(c4ccc5c(c4)-n4c(nc(=O)c6c(Cl)cccc64)C5(C)C)CC3)CC2)nn1)C(C)(C)C [Compound B151, (2S,4R)-1-((S)-2-(4-((1r,4S)-4-((4-(4-chloro-7,7-dimethyl-5-oxo-5,7-dihydroindolo[1,2-a]quinazolin-10-yl)piperidin-1-yl)methyl)cyclohexyl)-1H-1,2,3-triazol-1-yl)-3,3-dimethylbutanoyl)-4-hydroxy-N-((R)-6-(4-methylthiazol-5-yl)-1,2,3,4-tetrahydronaphthalen-1-yl)pyrrolidine-2-carboxamide] the DC50 (SMARCA2) was less than 100 nM, the Dmax (SMARCA2) was greater than 90% and the DC50 (SMARCA4) was 100 to 500 nM. The Dmax (SMARCA4) was 50 to 69%.
In the case of Cc1cc(-c2scnc2C)ccc1[C@H](C)NC(=O)[C@@H]1C[C@@H](O)CN1C(=O)[C@@H](n1cc([C@H]2CC[C@H](CN3CCC(c4ccc5c(c4)-n4c(nc(=O)c6c(Cl)cccc64)C5(C)C)CC3)CC2)nn1)C(C)(C)C [Compound B149, (2S,4R)-1-((S)-2-(4-((1r,4S)-4-((4-(4-chloro-7,7-dimethyl-5-oxo-5,7-dihydroindolo[1,2-a]quinazolin-10-yl)piperidin-1-yl)methyl)cyclohexyl)-1H-1,2,3-triazol-1-yl)-3,3-dimethylbutanoyl)-4-hydroxy-N-((S)-1-(2-methyl-4-(4-methylthiazol-5-yl)phenyl)ethyl)pyrrolidine-2-carboxamide], the DC50 (SMARCA2) is reported as less than 100 nM, the Dmax (SMARCA2) is reported as greater than 90% and the DC50 (SMARCA4) is reported as less than 100 nM. The Dmax (SMARCA4) was 70 to 90%.
Work on Cc1ncsc1-c1ccc([C@H](C)NC(=O)[C@@H]2C[C@@H](O)CN2C(=O)[C@@H](c2cc(N3CCC(CN4CCC(c5ccc6c(c5)C(C)(C)c5nc(=O)c7c(Cl)cccc7n5-6)CC4)CC3)no2)C(C)C)cc1 [Compound B9, (2S,4R)-1-((R)-2-(3-(4-((4-(4-chloro-7,7-dimethyl-5-oxo-5,7-dihydroindolo[1,2-a]quinazolin-9-yl)piperidin-1-yl)methyl)piperidin-1-yl)isoxazol-5-yl)-3-methylbutanoyl)-4-hydroxy-N—((S)-1-(4-(4-methylthiazol-5-yl)phenyl)ethyl)pyrrolidine-2-carboxamide] yielded a DC50 (SMARCA2) of less than 100 nM, a Dmax (SMARCA2) greater than 90% and a DC50 (SMARCA4) of less than 100 nM. For the same compound, the Dmax (SMARCA4) was greater than 90%.
In the case of Cc1ncsc1-c1ccc([C@H](C)NC(=O)[C@@H]2C[C@@H](O)CN2C(=O)[C@@H](c2cc(OCCCCn3cc(-c4ccc5c(c4)-n4c(nc(=O)c6c(Cl)cccc64)C5(C)C)cn3)no2)C(C)C)cc1 [Compound B97, (2S,4R)-1-((R)-2-(3-(4-(4-(4-chloro-7,7-dimethyl-5-oxo-5,7-dihydroindolo[1,2-a]quinazolin-10-yl)-1H-pyrazol-1-yl)butoxy)isoxazol-5-yl)-3-methylbutanoyl)-4-hydroxy-N-((S)-1-(4-(4-methylthiazol-5-yl)phenyl)ethyl)pyrrolidine-2-carboxamide], the DC50 (SMARCA2) is reported as 100 to 500 nM, the Dmax (SMARCA2) is reported as 50 to 69% and the DC50 (SMARCA4) is reported as 100 to 500 nM. For the same compound, the Dmax (SMARCA4) was less than 50%.
Cc1ncsc1-c1ccc([C@H](C)NC(=O)[C@@H]2C[C@@H](O)CN2C(=O)[C@@H](NC(=O)CCN2CCC(c3ccc4c(c3)-n3c(nc(=O)c5c(Cl)cccc53)C4(C)C)CC2)C(C)(C)C)cc1 [Compound B43, (2S,4R)-1-((S)-2-(3-(4-(4-chloro-7,7-dimethyl-5-oxo-5,7-dihydroindolo[1,2-a]quinazolin-10-yl)piperidin-1-yl)propanamido)-3,3-dimethylbutanoyl)-4-hydroxy-N—((S)-1-(4-(4-methylthiazol-5-yl)phenyl)ethyl)pyrrolidine-2-carboxamide] gave a DC50 (SMARCA2) of 100 to 500 nM, a Dmax (SMARCA2) of 50 to 69% and a DC50 (SMARCA4) greater than 1000 nM. It also gave a Dmax (SMARCA4) of less than 50%.
